A short description of experiment [1]: Cytotoxic activity of compound was evaluated against KB cell line. It counts as functional. The conditions noted are these: Homo sapiens, read-out: ED50 (the source's name).
A short description of experiment [2]: Cytotoxic activity of compound was evaluated against drug resistant subline KB-7d cells. It counts as functional. The conditions noted are these: Homo sapiens; read-out: ED50 (the source's name).
Experiment [3] deals with KB 3-1. Nature of the experiment: Cytotoxic activity of compound was evaluated against KB-VIN cells expressing (P-glycoprotein). It counts as functional. Conditions: Homo sapiens, KBVIN; read-out: ED50 (the source's name).
Experiment [4] relates to KB 3-1. As to the kind of experiment: Cytotoxic activity of compound was evaluated against KB-VIN cells at conc. of 20 ug/mL. It counts as functional. Conditions: Homo sapiens, KBVIN.
Experiment [5] can be described thus: Cytotoxic activity of compound was evaluated against KB cell line at conc. of 20 ug/mL. Conditions: Homo sapiens. It counts as functional.
For experiment [6], the system named is KB 3-1. Nature of the experiment: Cytotoxic activity of compound was evaluated against drug resistant subline KB-7d cells at conc. of 20 ug/mL. It counts as functional. The conditions noted are these: Homo sapiens.
The subject of experiment [7] is HOS. As to the kind of experiment: Cytotoxic activity of compound against HOS tumor cell line at conc. of 20 ug/mL. It counts as functional. The conditions noted are these: Homo sapiens.
Experiment [8] has as its system SK-MEL-2. As to the kind of experiment: Cytotoxic activity of compound against SK-MEL-2 tumor cell line. It counts as functional. Conditions: Homo sapiens, read-out: ED50 (the source's name).
Experiment [9] concerns MCF7. As to the kind of experiment: Cytotoxic activity of compound against MCF-7 tumor cell line at conc. of 20 ug/mL. It counts as functional. The conditions noted are these: Homo sapiens.
Experiment [10] concerns HOS. As to the kind of experiment: Cytotoxic activity of compound against HOS tumor cell line. It counts as functional. Conditions: Homo sapiens, read-out: ED50 (the source's name).
The test system of experiment [11] is MCF7. Nature of the experiment: Cytotoxic activity of compound against MCF-7 tumor cell line. It counts as functional. Conditions: Homo sapiens, read-out: ED50 (the source's name).
Experiment [12] concerns U-87 MG. Nature of the experiment: Cytotoxic activity of compound against U-87-MG tumor cell line. It counts as functional, U-87MG ATCC. Conditions: Homo sapiens, read-out: ED50 (the source's name).
The nature of experiment [13]: Cytotoxic activity of compound against IA-9 tumor cell line. It counts as functional. The conditions noted are these: Homo sapiens; read-out: ED50 (the source's name).
The nature of experiment [14]: Cytotoxic activity of compound against KB cell lines. It counts as functional. The conditions noted are these: Homo sapiens, read-out: ED50 (the source's name).
The subject of experiment [15] is U-87 MG. As to the kind of experiment: Cytotoxic activity of compound against U-87-MG tumor cell line at conc. of 20 ug/mL. It counts as functional, U-87MG ATCC. The conditions noted are these: Homo sapiens.
Experiment [16] deals with HCT-8. Nature of the experiment: Cytotoxic activity of compound against HCT-8 tumor cell line; NA denotes not active at conc. of 20 ug/mL. It counts as functional, cell-based. The conditions noted are these: Homo sapiens.
In experiment [17] the test system is A549. Nature of the experiment: Cytotoxic activity of compound against A-549 tumor cell line at conc. of 20 ug/mL. It counts as functional. The conditions noted are these: Homo sapiens.
Experiment [18] in a line: Cytotoxic activity of compound against IA-9 tumor cell line. at conc. of 20 ug/mL. It counts as functional. The conditions noted are these: Homo sapiens.
Experiment [19] is described as follows: Cytotoxic activity of compound against KB cell lines at conc. of 20 ug/mL. It counts as functional. The conditions noted are these: Homo sapiens.
Experiment [20] deals with A549. As to the kind of experiment: Cytotoxic activity of compound against A-549 tumor cell line. It counts as functional. The conditions noted are these: Homo sapiens, read-out: ED50 (the source's name).
Experiment [21] deals with KB 3-1. As to the kind of experiment: Cytotoxic activity of compound was evaluated against KB-VIN cells expressing (P-glycoprotein) at conc. of 20 ug/mL. It counts as functional. Conditions: Homo sapiens, KBVIN.
In experiment [22] the test system is SK-MEL-2. Nature of the experiment: Cytotoxic activity of compound against SK-MEL-2 tumor cell line at conc. of 20 ug/mL. It counts as functional. The conditions noted are these: Homo sapiens.
Experiment [23] deals with HCT-8. Nature of the experiment: Cytotoxic activity of compound against HCT-8 tumor cell line. It counts as functional. The conditions noted are these: Homo sapiens, read-out: ED50 (the source's name).
The next experiment has as its system KB. As to the kind of experiment: Cytotoxic activity of compound was evaluated against KB cell line; NA denotes not active at conc. of 20 ug/mL. It counts as functional, cell-based. The conditions noted are these: Homo sapiens.

As usually defined, the inhibition is the relative decrease from the control value, in per cent.

Converted amounts (≈) assume the structure as drawn. The source made the active and inactive calls. No cut-off for these calls is given here.

In the case of `C=C1[C@@H](OC(=O)/C=C/c2ccccc2)C[C@H](OC(C)=O)[C@@]2(CCOC(C)=O)[C@@H](OC(C)=O)[C@H](OC(C)=O)[C@]3(O)[C@@]4(C)CO[C@]3(C)C(=O)C[C@H]4[C@@H](OC(C)=O)[C@H]12`, the EC50 in experiment [1] stood at 6.2 µg/mL (≈ 8.06 µM); in experiment [2] it was 4.6 µg/mL (≈ 5.98 µM); in the experiment with KB 3-1 [3] it was 17 µg/mL (≈ 22.1 µM).
As to `CC(=O)OC/C1=C\[C@H](OC(C)=O)[C@]2(C)C[C@H](OC(C)=O)C(C)=C([C@@H](OC(C)=O)/C(OC(C)=O)=C(/C)[C@@H](OC(C)=O)C[C@@H]1OC(=O)/C=C/c1ccccc1)C2(C)C`, the values for the EC50 (in experiment [1]; in experiment [2]; in the experiment on KB 3-1 [3]) were 16.6 µg/mL (≈ 21.3 µM), 10 µg/mL (≈ 12.8 µM) and 13.3 µg/mL (≈ 17 µM), respectively.
Regarding `CC(=O)O[C@H]1C[C@H]2[C@@H](OC(C)=O)/C=C3\C[C@@](C)([C@@H](OC(C)=O)C[C@@H]3OC(C)=O)[C@@H](O)C(=O)C(=C1C)C2(C)C`, the inhibition at 20 µg/mL came out at 21% in the experiment on KB 3-1 [4], 10% in experiment [5] and 28% in the experiment on KB 3-1 [6]. The EC50 in [1] is > 20 µg/mL; in experiment [2], > 28 µg/mL; with KB 3-1 [3], > 21 µg/mL.
For `C=C1[C@@H](OC(=O)/C=C/c2ccccc2)C[C@H](OC(C)=O)[C@@]2(C)[C@@H](OC(C)=O)[C@H](OC(C)=O)C3=C(C)C(=O)C[C@@H]([C@@H](OC(C)=O)[C@H]12)C3(C)C`, the EC50 in experiment [1] was found to be 3.9 µg/mL (≈ 5.87 µM); in experiment [2], 4.1 µg/mL (≈ 6.17 µM); in the experiment with KB 3-1 [3], 3.6 µg/mL (≈ 5.42 µM).
Turning to `C=C1[C@@H](OC(=O)/C=C/c2ccccc2)CC[C@@]2(C)[C@@H](O)[C@H](OC(C)=O)[C@@]34[C@H](C)C(=O)C[C@@H]([C@@H](OC(C)=O)C132)C4(C)C` (some centres undefined), the EC50 was 7.7 µg/mL (≈ 13.6 µM) in experiment [1], 6.1 µg/mL (≈ 10.8 µM) in experiment [2] and 6.4 µg/mL (≈ 11.3 µM) in the experiment on KB 3-1 [3].
The like results for `C=C1[C@@H](OC(=O)/C=C/c2ccccc2)C[C@H](OC(C)=O)[C@]2(C)[C@@H]1C[C@@H]1C[C@H](OC(C)=O)C(C)=C([C@@H](OC(C)=O)[C@@H]2OC(C)=O)C1(C)C` were, in that order, 4.8 µg/mL (≈ 7.38 µM), 3.5 µg/mL (≈ 5.38 µM) and 2.4 µg/mL (≈ 3.69 µM).
Take `C=C1[C@@H](OC(=O)/C=C/c2ccccc2)CC[C@@]2(C)[C@@H](OC(C)=O)[C@H](OC(C)=O)C3=C(C)[C@@H](OC(C)=O)C[C@@H]([C@@H](O)[C@H]12)C3(C)C`: the EC50 in [1] came out at 12.5 µg/mL (≈ 20.5 µM); in experiment [2], 9.4 µg/mL (≈ 15.4 µM); in the experiment on KB 3-1 [3] it was 11 µg/mL (≈ 18.1 µM).
Take `CC(=O)O[C@H]1CC[C@@]2(C)C[C@H](OC(C)=O)C3=C(C)CC(O)[C@@H]([C@@H](OC(C)=O)[C@@H]2C1)C3(C)C` (some centres undefined): the EC50 in [1] was > 20 µg/mL; in experiment [2], 9.6 µg/mL (≈ 21.3 µM); in the experiment with KB 3-1 [3], 17.3 µg/mL (≈ 38.4 µM). This molecule came in with an inhibition at 20 µg/mL in experiment [5] of 45%.
As to `COc1ccc(-c2cc(=O)c3c(O)cc(O)c(-c4cc(OC)ccc4-c4cc(=O)c5c(O)cc(OC)cc5o4)c3o2)cc1`, the inhibition at 20 µg/mL was found to be 25% in the experiment on HOS [7]; 22% with MCF7 [9]; 17% in the experiment on U-87 MG [15]; 58% with A549 [17]; 44% in experiment [18]; 12% in experiment [19]. Moreover, the inhibition at 20 µg/mL with KB 3-1 [21] and in the experiment on SK-MEL-2 [22] was 9% throughout. Further, the EC50 (in the experiment with SK-MEL-2 [8]; with HOS [10]; in the experiment on MCF7 [11]; with U-87 MG [12]; in [13]; in experiment [14]) was > 20 µg/mL each time. In addition, the EC50 in the experiment on A549 [20] and in the experiment with KB 3-1 [3] was > 20 µg/mL in each case. Further, the inhibition entry in the experiment with HCT-8 [16] is “inactive”.
In the case of `C=C1[C@@H](OC(=O)/C=C/c2ccccc2)CC[C@@]2(C)[C@@H](OC(C)=O)[C@H](OC(C)=O)[C@@]34[C@H](C)C(=O)C[C@@H]([C@@H](OC(C)=O)C132)C4(C)C` (some centres undefined), the EC50 in experiment [1] was found to be 12.1 µg/mL (≈ 19.9 µM); in experiment [2], 7.8 µg/mL (≈ 12.9 µM); in the experiment with KB 3-1 [3], 8.7 µg/mL (≈ 14.3 µM).
Regarding `COc1ccc(-c2cc(=O)c3c(O)cc(OC)cc3o2)c(-c2c(O)cc(O)c3c(=O)cc(-c4ccc(O)cc4)oc23)c1`, the EC50 was 7 µg/mL (≈ 12.4 µM) with SK-MEL-2 [8]; 8 µg/mL (≈ 14.1 µM) with HOS [10]; 7.5 µg/mL (≈ 13.2 µM) in the experiment on MCF7 [11]; 7 µg/mL (≈ 12.4 µM) in the experiment with U-87 MG [12]; 6 µg/mL (≈ 10.6 µM) in [13]; 7.5 µg/mL (≈ 13.2 µM) in [14]. Moreover, the EC50 was 5.5 µg/mL (≈ 9.71 µM) in the experiment on A549 [20], 8.5 µg/mL (≈ 15 µM) in the experiment on HCT-8 [23] and > 20 µg/mL in the experiment on KB 3-1 [3]. The same molecule returned an inhibition at 20 µg/mL in the experiment on KB 3-1 [21] of 21%.
In the case of `C=C1[C@@H](OC(=O)/C=C/c2ccccc2)C[C@H](OC(C)=O)[C@@]2(C)[C@@H](OC(C)=O)[C@H](OC(C)=O)C3=C(C)[C@@H](OC(C)=O)C[C@@H]([C@@H](OC(C)=O)[C@H]12)C3(C)C`, the EC50 in experiment [1] turned out to be 16 µg/mL (≈ 22.6 µM); in experiment [2], 14.2 µg/mL (≈ 20 µM); with KB 3-1 [3], 16.2 µg/mL (≈ 22.9 µM).
In the case of `CC(=O)O[C@H]1C(=O)[C@@]2(C)C/C(=C\[C@H](OC(C)=O)[C@@H]3C[C@H](OC(C)=O)C(C)=C1C3(C)C)[C@@H](OC(C)=O)C[C@@H]2OC(C)=O`, the inhibition at 20 µg/mL with KB 3-1 [6] is 22%; with KB 3-1 [21] it was 5%. The ED50 entry with KB was “inactive”. Also, the EC50 (in experiment [2]; in the experiment with KB 3-1 [3]) was > 20 µg/mL throughout.
Consider `C=C1[C@@H](OC(C)=O)CC[C@@]2(C)C[C@H](OC(C)=O)C3=C(C)C[C@H](OC(=O)[C@@H](C)C(C)O)[C@@H]([C@@H](OC(C)=O)[C@H]12)C3(C)C` (some centres undefined), for which the EC50 in experiment [1] came to 9.8 µg/mL (≈ 17.4 µM); in [2], 4.3 µg/mL (≈ 7.64 µM); with KB 3-1 [3], 8.6 µg/mL (≈ 15.3 µM).

The record behind these values is ChEMBL document CHEMBL1135356, “Multidrug resistant cancer cells susceptibility to cytotoxic taxane diterpenes from Taxus yunnanensis and Taxus chinensis” (2002).
